Each molecule was assayed on ecotropic pseudo-typed lentiviral particles (luciferase) in PM1-mCat1 cells (assay: Luciferase-based viral integration assay using PM1-mCat1 cells). Details: Human immunodeficiency virus 1, read-out: IC50 (in µM), viral integration assay.

In order of falling IC50:
1. CC(C)CCn1cnc2c1c(=O)n(CC(=O)NC(C)C)c(=O)n2Cc1ccccc1 [T5488769, CC(C)CCN1C=NC2=C1C(=O)N(CC(=O)NC(C)C)C(=O)N2CC1=CC=CC=C1]  9.06 µM
2. Cc1cccc(C)c1NC(=O)CN1CCCC1c1nc2ccccc2s1 (stereo not drawn) [T5823772, CC1=CC=CC(C)=C1NC(=O)CN1CCCC1C1=NC2=C(S1)C=CC=C2]  8.88 µM
3. O=c1c2ccccc2nc(CN2CCOCC2)n1Cc1nc(-c2ccc(F)cc2)cs1 [T5938605, FC1=CC=C(C=C1)C1=CSC(CN2C(CN3CCOCC3)=NC3=C(C=CC=C3)C2=O)=N1]  8.71 µM
4. Cc1ccc(S(=O)(=O)N2CCOCC2)cc1C(=O)Nc1ccccc1N1CCCC1 [T5530682, CC1=C(C=C(C=C1)S(=O)(=O)N1CCOCC1)C(=O)NC1=C(C=CC=C1)N1CCCC1]  8.26 µM
5. Cc1nc(SCC(=O)NCCC(C)C)c(C#N)c(C)c1C [T5989363, CC(C)CCNC(=O)CSC1=C(C#N)C(C)=C(C)C(C)=N1]  7.91 µM
6. CC(=O)c1ccc(NC(=O)CNc2ccccc2-c2ccccc2)cc1 [T5941648, CC(=O)C1=CC=C(NC(=O)CNC2=C(C=CC=C2)C2=CC=CC=C2)C=C1]  7.85 µM
7. O=C(CNc1ccccc1-c1ccccc1)Nc1ccccc1Cl [T5943324, ClC1=C(NC(=O)CNC2=C(C=CC=C2)C2=CC=CC=C2)C=CC=C1]  7.79 µM
8. O=C(COc1ccccc1-c1ccccc1)NCc1ccccc1CN1CCOCC1 [T5781151, O=C(COC1=C(C=CC=C1)C1=CC=CC=C1)NCC1=C(CN2CCOCC2)C=CC=C1]  6.94 µM
9. O=S(=O)(c1ccc(Oc2ncnc3scc(-c4ccc(F)cc4)c23)cc1)N1CCOCC1 [T5413794, FC1=CC=C(C=C1)C1=CSC2=C1C(OC1=CC=C(C=C1)S(=O)(=O)N1CCOCC1)=NC=N2]  6.91 µM
10. O=C(COc1ccccc1-c1ccccc1)NCC1CCCCC1 [T5339957, O=C(COC1=C(C=CC=C1)C1=CC=CC=C1)NCC1CCCCC1]  6.88 µM
11. O=C(COc1ccccc1-c1ccccc1)NCc1ccccc1Cn1cccn1 [T5945790, O=C(COC1=C(C=CC=C1)C1=CC=CC=C1)NCC1=C(CN2C=CC=N2)C=CC=C1]  6.78 µM
12. c1csc(-c2csc3nc(CN4CCOCC4)nc(NCC4CCCO4)c23)c1 (stereo not drawn) [T6061512, C(NC1=C2C(SC=C2C2=CC=CS2)=NC(CN2CCOCC2)=N1)C1CCCO1]  6.48 µM
13. COc1ccc(CC(=O)Nc2ccc(OC)cc2)cc1 [T6053460, COC1=CC=C(CC(=O)NC2=CC=C(OC)C=C2)C=C1]  6.46 µM
14. N#Cc1ccccc1S(=O)(=O)N1CCN(Cc2ccc(-c3ccccc3)cc2)CC1 [T5432718, O=S(=O)(N1CCN(CC2=CC=C(C=C2)C2=CC=CC=C2)CC1)C1=C(C=CC=C1)C#N]  6.33 µM
15. O=S(=O)(c1ccc(Sc2ncnc3scc(-c4ccc(F)cc4)c23)nc1)N1CCOCC1 [T5643556, FC1=CC=C(C=C1)C1=CSC2=C1C(SC1=NC=C(C=C1)S(=O)(=O)N1CCOCC1)=NC=N2]  6.19 µM
16. CCc1ccc(-c2csc(Cn3c(CN4CCOCC4)nc4ccccc4c3=O)n2)cc1 [T5938606, CCC1=CC=C(C=C1)C1=CSC(CN2C(CN3CCOCC3)=NC3=C(C=CC=C3)C2=O)=N1]  5.91 µM
17. Cc1ccccc1NC(=O)CNc1ccccc1-c1ccccc1 [T5947021, CC1=C(NC(=O)CNC2=C(C=CC=C2)C2=CC=CC=C2)C=CC=C1]  5.61 µM
18. CN(C1CCCCC1)S(=O)(=O)c1cccc(C#N)c1 [T5339669, CN(C1CCCCC1)S(=O)(=O)C1=CC(=CC=C1)C#N]  5.2 µM
19. O=C(Nc1ccccc1N1CCCC1)c1cc(S(=O)(=O)N2CCOCC2)ccc1Cl [T6137813, ClC1=C(C=C(C=C1)S(=O)(=O)N1CCOCC1)C(=O)NC1=C(C=CC=C1)N1CCCC1]  5.04 µM
20. O=C(CSc1nnc(-c2cccc(Cl)c2)n1-c1ccccc1C(F)(F)F)NCc1ccco1 [T5258076, FC(F)(F)C1=C(C=CC=C1)N1C(SCC(=O)NCC2=CC=CO2)=NN=C1C1=CC(Cl)=CC=C1]  4.76 µM
21. CCOc1ncccc1C(=O)OCc1nc(N)c2c(C)c(C)sc2n1 [T5776163, CCOC1=C(C=CC=N1)C(=O)OCC1=NC2=C(C(C)=C(C)S2)C(N)=N1]  4.7 µM
22. c1ccc(CNc2nc(CN3CCOCC3)nc3scc(-c4cccs4)c23)cc1 [T5605915, C(NC1=C2C(SC=C2C2=CC=CS2)=NC(CN2CCOCC2)=N1)C1=CC=CC=C1]  4.67 µM
23. CC(C)CCn1cnc2c1c(=O)n(CC(=O)NC1CC1)c(=O)n2Cc1ccccc1 [T5351795, CC(C)CCN1C=NC2=C1C(=O)N(CC(=O)NC1CC1)C(=O)N2CC1=CC=CC=C1]  4.64 µM
24. C=CCOC(=O)C1=C(C)NC(=S)NC1c1ccc(C(C)C)cc1 (stereo not drawn) [T6203208, CC(C)C1=CC=C(C=C1)C1NC(=S)NC(C)=C1C(=O)OCC=C]  4.37 µM
25. N#Cc1ccccc1S(=O)(=O)N1CCC(CCc2ccccc2)CC1 [T5952497, O=S(=O)(N1CCC(CCC2=CC=CC=C2)CC1)C1=C(C=CC=C1)C#N]  4.27 µM
26. O=C(Nc1ccc2c(c1)OCCCO2)c1cccc(N2CCCC2=O)c1 [T5609721, O=C(NC1=CC2=C(OCCCO2)C=C1)C1=CC(=CC=C1)N1CCCC1=O]  4.12 µM
27. COc1ccc(S(=O)(=O)N(Cc2cccc(C(F)(F)F)c2)c2ccccc2OC)cc1 [T5407044, COC1=CC=C(C=C1)S(=O)(=O)N(CC1=CC(=CC=C1)C(F)(F)F)C1=C(OC)C=CC=C1]  4.11 µM
28. O=C(Nc1ccccc1O)c1ccccc1Br [T6043692, OC1=C(NC(=O)C2=C(Br)C=CC=C2)C=CC=C1]  4.11 µM
29. c1csc(-c2csc3nc(CN4CCOCC4)nc(N4CCCC4)c23)c1 [T5587925, C(N1CCOCC1)C1=NC2=C(C(=CS2)C2=CC=CS2)C(=N1)N1CCCC1]  3.97 µM
30. COc1ccc(N(Cc2ccccc2)S(=O)(=O)c2cccc(C(=O)NCc3ccncc3)c2)cc1 [T5435331, COC1=CC=C(C=C1)N(CC1=CC=CC=C1)S(=O)(=O)C1=CC(=CC=C1)C(=O)NCC1=CC=NC=C1]  3.14 µM
31. Cc1ccc(-n2nnnc2Sc2nnnn2-c2ccccc2)c(C)c1 [T5595439, CC1=CC(C)=C(C=C1)N1N=NN=C1SC1=NN=NN1C1=CC=CC=C1]  2.98 µM
32. Cc1cccn2c(=O)cc(CN3CC(C(=O)N4CCCCC4)Oc4ccccc43)nc12 (stereo not drawn) [T5615894, CC1=CC=CN2C(=O)C=C(CN3CC(OC4=C3C=CC=C4)C(=O)N3CCCCC3)N=C12]  2.93 µM
33. COC(=O)c1ccc(C(=O)Nc2ncc(C)s2)cc1 [T5650116, COC(=O)C1=CC=C(C=C1)C(=O)NC1=NC=C(C)S1]  2.79 µM
34. c1csc(-c2csc3nc(CN4CCOCC4)nc(NN4CCCCC4)c23)c1 [T6026407, C(N1CCOCC1)C1=NC2=C(C(=CS2)C2=CC=CS2)C(NN2CCCCC2)=N1]  2.73 µM
35. c1ccc(-c2csc3nc(CN4CCOCC4)nc(NCCC4CCCO4)c23)cc1 (stereo not drawn) [T5948460, C(CC1CCCO1)NC1=C2C(SC=C2C2=CC=CC=C2)=NC(CN2CCOCC2)=N1]  2.33 µM
36. O=c1[nH]c(CSc2nnc(C3CC3)o2)nc2scc(-c3ccco3)c12 [T5983422, O=C1NC(CSC2=NN=C(O2)C2CC2)=NC2=C1C(=CS2)C1=CC=CO1]  2.28 µM
37. CS(=O)(=O)c1ccc(NC(=O)CNc2ccccc2-c2ccccc2)cc1 [T5950416, CS(=O)(=O)C1=CC=C(NC(=O)CNC2=C(C=CC=C2)C2=CC=CC=C2)C=C1]  2.08 µM
38. Clc1cccc(Nc2nc(CN3CCOCC3)nc3scc(-c4ccccc4)c23)c1 [T5363639, ClC1=CC(NC2=C3C(SC=C3C3=CC=CC=C3)=NC(CN3CCOCC3)=N2)=CC=C1]  2 µM
39. CC1CCN(c2nc(CN3CCOCC3)nc3scc(-c4cccs4)c23)CC1 [T5932815, CC1CCN(CC1)C1=C2C(SC=C2C2=CC=CS2)=NC(CN2CCOCC2)=N1]  2 µM
40. Cc1nc(SCC(=O)NC(C)c2cccs2)c(C#N)c(C)c1C (stereo not drawn) [T5788505, CC(NC(=O)CSC1=C(C#N)C(C)=C(C)C(C)=N1)C1=CC=CS1]  1.99 µM
41. CC(=O)c1ccccc1NC(=O)CNc1ccccc1-c1ccccc1 [T5989502, CC(=O)C1=C(NC(=O)CNC2=C(C=CC=C2)C2=CC=CC=C2)C=CC=C1]  1.94 µM
42. Cc1ccc(F)c(NC(=O)c2ccc(OC(F)F)cc2)c1 [T5506295, CC1=CC(NC(=O)C2=CC=C(OC(F)F)C=C2)=C(F)C=C1]  1.77 µM
43. O=C(CSc1nc2ccccc2c(=O)n1Cc1ccco1)N1CCN(c2ccccc2)CC1 [T5344625, O=C(CSC1=NC2=C(C=CC=C2)C(=O)N1CC1=CC=CO1)N1CCN(CC1)C1=CC=CC=C1]  1.72 µM
44. CCC(C)c1ccc(S(=O)(=O)Nc2ccc(F)cc2C)cc1 (stereo not drawn) [T5989159, CCC(C)C1=CC=C(C=C1)S(=O)(=O)NC1=C(C)C=C(F)C=C1]  1.67 µM
45. O=C(Nc1ccc2c(c1)OCO2)c1cccc(N2CCCC2=O)c1 [T5821319, O=C(NC1=CC2=C(OCO2)C=C1)C1=CC(=CC=C1)N1CCCC1=O]  1.58 µM
46. CC(Nc1nc(CN2CCOCC2)nc2sc3c(c12)CCC3)c1cccc(Cl)c1 (stereo not drawn) [T5952126, CC(NC1=C2C3=C(CCC3)SC2=NC(CN2CCOCC2)=N1)C1=CC(Cl)=CC=C1]  1.53 µM
47. CCn1c(SCC(=O)Nc2ccccc2C#N)nc2ccsc2c1=O [T6068357, CCN1C(=O)C2=C(C=CS2)N=C1SCC(=O)NC1=C(C=CC=C1)C#N]  1.49 µM
48. Cc1ccccc1-n1nnnc1SCc1nnc(-c2cccs2)o1 [T5805638, CC1=C(C=CC=C1)N1N=NN=C1SCC1=NN=C(O1)C1=CC=CS1]  1.45 µM
49. COC(=O)c1ccccc1NS(=O)(=O)c1c(F)cc(F)cc1Br [T6007055, COC(=O)C1=C(NS(=O)(=O)C2=C(Br)C=C(F)C=C2F)C=CC=C1]  1.35 µM
50. O=C(CSc1nnc(C2CC2)o1)NC(c1ccccc1)c1cccs1 (stereo not drawn) [T5964141, O=C(CSC1=NN=C(O1)C1CC1)NC(C1=CC=CS1)C1=CC=CC=C1]  1.26 µM
51. CCOc1ccc(C(=O)Nc2cc(C)ccc2F)cc1 [T5869032, CCOC1=CC=C(C=C1)C(=O)NC1=C(F)C=CC(C)=C1]  1.1 µM
52. CCNC1=NN=C(c2cc(C)n(C3CC3)c2C)CS1 [T5633521, CCNC1=NN=C(CS1)C1=C(C)N(C2CC2)C(C)=C1]  1.05 µM

Same assay, conditions: Human immunodeficiency virus 1, read-out: IC50s during a 6-month period

`Cc1nnc(C(=O)NC(C)(C)c2nc(C(=O)NCc3ccc(F)cc3)c(O)c(=O)n2C)o1` [Raltegravir, reference compound] gave an IC50 of 0.0021 to 0.0079 µM.

Same assay, conditions: read-out: IC50 (in µM), viral integration assay; Table S3, PM1-mCat1, dose-response hit profiling

In the case of `CCNC(=O)COC(=O)c1c(C)c(-c2cccc(Cl)c2)nc2ccccc12` [T0516-3343, CCNC(=O)COC(=O)C1=C2C=CC=CC2=NC(=C1C)C1=CC(Cl)=CC=C1], the IC50 is reported as 6.07 µM.

From PMC7290285 (Viruses, 2020)
